In data set [1] the target is T1, TNKS2 (Homo sapiens, UniProt Q9H2K2).
T1 sequence (Q9H2K2 1-1166): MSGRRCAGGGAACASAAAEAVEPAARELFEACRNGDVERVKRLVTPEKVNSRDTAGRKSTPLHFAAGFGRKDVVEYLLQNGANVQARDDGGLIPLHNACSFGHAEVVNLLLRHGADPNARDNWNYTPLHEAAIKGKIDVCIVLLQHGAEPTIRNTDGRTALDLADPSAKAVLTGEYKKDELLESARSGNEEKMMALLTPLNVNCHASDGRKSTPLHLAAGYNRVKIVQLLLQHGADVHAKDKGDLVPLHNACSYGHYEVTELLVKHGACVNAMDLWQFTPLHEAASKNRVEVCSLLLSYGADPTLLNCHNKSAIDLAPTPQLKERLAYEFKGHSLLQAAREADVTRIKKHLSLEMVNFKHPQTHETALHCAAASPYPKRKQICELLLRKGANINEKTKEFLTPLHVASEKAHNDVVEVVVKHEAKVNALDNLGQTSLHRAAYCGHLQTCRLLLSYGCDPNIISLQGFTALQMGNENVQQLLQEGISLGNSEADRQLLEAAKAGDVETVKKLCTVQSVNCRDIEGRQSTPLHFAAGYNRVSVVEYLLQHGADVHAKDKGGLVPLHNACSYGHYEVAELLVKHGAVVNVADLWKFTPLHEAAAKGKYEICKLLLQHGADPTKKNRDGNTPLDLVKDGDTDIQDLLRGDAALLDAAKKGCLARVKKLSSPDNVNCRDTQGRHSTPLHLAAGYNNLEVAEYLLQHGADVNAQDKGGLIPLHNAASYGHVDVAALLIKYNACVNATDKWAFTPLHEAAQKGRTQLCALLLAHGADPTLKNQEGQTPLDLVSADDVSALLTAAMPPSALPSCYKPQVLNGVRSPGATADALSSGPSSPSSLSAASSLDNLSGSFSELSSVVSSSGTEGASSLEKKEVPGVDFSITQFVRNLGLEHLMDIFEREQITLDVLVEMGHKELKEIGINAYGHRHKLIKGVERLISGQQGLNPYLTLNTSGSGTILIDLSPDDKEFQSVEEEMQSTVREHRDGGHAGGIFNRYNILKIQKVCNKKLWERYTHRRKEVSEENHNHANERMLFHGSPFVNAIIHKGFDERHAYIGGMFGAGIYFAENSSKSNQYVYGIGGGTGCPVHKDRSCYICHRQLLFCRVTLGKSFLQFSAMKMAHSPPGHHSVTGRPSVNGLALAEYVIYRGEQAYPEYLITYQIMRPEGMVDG
Description: biochemical. The following applies: read-out: TNKS2 IC50; > = less than 50% inhibition at highest concentration. As for the experimental part:
The proteins used in Tables 1–3 were produced as described earlier. Dockerin constructs to allow enhanced activity assays for mono-ARTs (Table 4) were produced in Escherichia coli with an N-terminal maltose binding protein (MBP) and a C-terminal dockerin domain from Hungateiclostridium thermocellum Cel48s as described recently.[47]
Inhibition experiments were performed using a homogenous assay measuring NAD+ consumption.[80]−[82] Reactions were carried out in quadruplicate, and IC50 curves were fitted using sigmoidal dose response curve (four variables) in GraphPad Prism version 8.02. […] Assay conditions for PARP2, TNKS2, PARP10, and PARP15 (Tables 1–3) were recently reported.[44] The conditions for the proximity-enhanced mono-ART assays (Table 4) were also reported recently.[47] PARP6 (400 nM) inhibition was measured using the standard buffer (50 mM sodium phosphate pH 7.0) for the enhanced activity assay using 500 nM NAD^+ and 18 h incubation in r.t..

The target in data set [2] is T2, PARP10 (Homo sapiens, UniProt Q53GL7).
T2 construct: made in house
T2 sequence (Q53GL7 1-1025): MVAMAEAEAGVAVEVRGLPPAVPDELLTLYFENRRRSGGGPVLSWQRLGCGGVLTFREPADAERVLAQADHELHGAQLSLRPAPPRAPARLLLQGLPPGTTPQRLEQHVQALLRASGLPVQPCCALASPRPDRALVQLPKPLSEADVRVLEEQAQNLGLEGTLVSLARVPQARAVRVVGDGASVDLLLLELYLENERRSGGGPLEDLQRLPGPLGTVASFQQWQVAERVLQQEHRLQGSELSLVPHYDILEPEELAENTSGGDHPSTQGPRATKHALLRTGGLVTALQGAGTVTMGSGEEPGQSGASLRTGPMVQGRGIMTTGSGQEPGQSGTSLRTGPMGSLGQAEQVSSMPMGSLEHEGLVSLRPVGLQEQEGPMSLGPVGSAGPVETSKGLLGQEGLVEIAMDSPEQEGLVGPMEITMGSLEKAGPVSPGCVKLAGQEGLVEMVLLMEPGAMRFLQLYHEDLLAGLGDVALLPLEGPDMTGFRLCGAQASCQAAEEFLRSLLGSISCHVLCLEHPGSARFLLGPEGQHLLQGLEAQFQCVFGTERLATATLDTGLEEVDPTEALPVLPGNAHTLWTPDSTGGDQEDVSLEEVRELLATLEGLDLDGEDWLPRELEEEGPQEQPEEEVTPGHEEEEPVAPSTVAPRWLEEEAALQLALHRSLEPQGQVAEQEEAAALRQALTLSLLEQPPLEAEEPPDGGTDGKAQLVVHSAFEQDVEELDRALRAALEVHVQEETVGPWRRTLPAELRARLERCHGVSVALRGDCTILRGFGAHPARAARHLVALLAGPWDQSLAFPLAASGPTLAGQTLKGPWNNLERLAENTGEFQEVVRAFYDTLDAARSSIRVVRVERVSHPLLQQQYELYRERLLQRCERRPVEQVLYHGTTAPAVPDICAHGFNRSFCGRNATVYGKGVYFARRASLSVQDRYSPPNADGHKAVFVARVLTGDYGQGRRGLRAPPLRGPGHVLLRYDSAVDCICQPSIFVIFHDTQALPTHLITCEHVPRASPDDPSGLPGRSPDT
Nature of the data set: biochemical. Format: biochemical.

Another data set addresses T3, PARP2 (Homo sapiens, UniProt Q9UGN5).
T3 construct: made in house
Description: biochemical. The data set is classed as biochemical. The note with it: > = less than 50% inhibition at highest concentration; ≫ = no inhibition; read-out: PARP2 IC50.

The target in a further data set is T4, PARP15 (Homo sapiens, UniProt Q460N3).
T4 construct: made in house
T4 sequence (Q460N3 1-678): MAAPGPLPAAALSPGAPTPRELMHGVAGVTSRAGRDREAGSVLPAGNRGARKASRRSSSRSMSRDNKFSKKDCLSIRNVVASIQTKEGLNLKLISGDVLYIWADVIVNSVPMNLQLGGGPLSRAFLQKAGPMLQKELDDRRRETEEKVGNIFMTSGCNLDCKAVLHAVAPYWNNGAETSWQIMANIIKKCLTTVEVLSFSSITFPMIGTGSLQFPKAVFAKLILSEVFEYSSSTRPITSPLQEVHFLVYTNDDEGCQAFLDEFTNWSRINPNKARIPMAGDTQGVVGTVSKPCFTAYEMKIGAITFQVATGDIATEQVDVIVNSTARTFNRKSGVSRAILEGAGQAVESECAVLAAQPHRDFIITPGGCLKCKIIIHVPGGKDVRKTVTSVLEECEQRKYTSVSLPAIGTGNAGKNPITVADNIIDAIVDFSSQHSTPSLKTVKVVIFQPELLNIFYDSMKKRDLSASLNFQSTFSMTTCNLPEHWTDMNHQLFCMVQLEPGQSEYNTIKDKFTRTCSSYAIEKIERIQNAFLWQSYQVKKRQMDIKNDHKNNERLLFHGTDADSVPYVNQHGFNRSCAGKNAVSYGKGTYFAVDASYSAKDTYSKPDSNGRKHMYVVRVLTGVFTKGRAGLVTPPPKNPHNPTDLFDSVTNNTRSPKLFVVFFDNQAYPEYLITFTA
Description: biochemical. Format: biochemical.

The next data set deals with HEK293T cells. Description: Cell viability assay (colorimetric WST-1). Format: cell-based, human. The following applies: HEK293T, 100, 50 and 10 μM, 24 h. As to the method: Cell viability was assessed by colorimetric WST-1 (Cellpro-Roche, Sigma-Aldrich) assay following manufacturer’s instructions. […] Also, DMSO and 10 mM hydroxyurea (Sigma) were used as internal controls for induced cell toxicity. […] Thereafter, WST-1 reagent was pipetted followed by 2 h incubation and absorbance measuring by a Tecan Infinite M1000 or a Tecan Spark (Tecan) plate reader. The assay was performed in triplicate and repeated at least three times. Data were normalized to DMSO control.

Data set [3] relates to TNKS2. The following applies: Figure 1 ref 19; cited from earlier work.
For data set [4], the system named is PARP10. The following applies: Figure 1 ref 35; cited from earlier work.
The subject of another data set is TNKS1/2. The following applies: Figure 1; cited from earlier work.
Data set [5] deals with T2, PARP10. Description: Cellular MARylation assay (immunoblot of PARP10 auto-MARylation). The data set is classed as cell-based. The following applies: 10 μM, 16 h, HeLa cells. As for the experimental part:
Cells were lysed in RIPA lysis buffer [10 mM Tris pH 7.4; 150 mM NaCl; 1% NP-40; 1% desoxycholate; 0,1% SDS; protease inhibitor cocktail (Sigma-Aldrich) and 10 μM olaparib (Selleck Chemicals)], and lysates were analyzed via SDS-PAGE and immunoblotting using specific anti-PARP10 (Eurogentec),[93] anti-MAR/PAR (Cell Signaling, E6F6A, anti-poly/Mono-ADP-ribose antibody), and anti-α-tubulin (B 5-1-2, Sigma-Aldrich) antibodies.

Another data set concerns PARP11. The note with it: Figure 1 ref 42; cited from earlier work.
The subject of a further data set is PARP7. The following applies: Figure 1 ref 40; cited from earlier work.
Setting [6] is: standard assay (Tables 1-3), * value limited by the protein concentration used, > less than 50% inhibition, ≫ no inhibition at the concentration, read-out: PARP15 IC50.

The structures appear in SMILES notation. Read-outs that look alike come from different tables or passages of the source. Some results are limits rather than exact numbers.

T3 sequence (Q9UGN5 whole entry): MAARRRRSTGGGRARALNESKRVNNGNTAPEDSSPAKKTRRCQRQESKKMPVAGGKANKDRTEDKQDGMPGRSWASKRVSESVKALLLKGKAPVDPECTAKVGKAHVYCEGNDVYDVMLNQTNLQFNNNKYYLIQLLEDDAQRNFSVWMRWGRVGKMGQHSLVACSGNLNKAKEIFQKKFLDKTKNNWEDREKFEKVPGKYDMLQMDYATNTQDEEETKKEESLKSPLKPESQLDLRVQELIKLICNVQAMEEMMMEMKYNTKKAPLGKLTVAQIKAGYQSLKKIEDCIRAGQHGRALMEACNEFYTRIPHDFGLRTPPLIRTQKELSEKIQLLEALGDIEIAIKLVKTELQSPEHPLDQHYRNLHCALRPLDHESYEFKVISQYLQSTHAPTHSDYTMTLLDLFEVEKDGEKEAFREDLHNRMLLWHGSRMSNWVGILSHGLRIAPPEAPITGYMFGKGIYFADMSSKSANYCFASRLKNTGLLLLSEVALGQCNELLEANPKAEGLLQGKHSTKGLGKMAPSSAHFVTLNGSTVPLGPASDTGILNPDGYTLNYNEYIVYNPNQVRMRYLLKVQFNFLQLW

Turning to `c1ccc2c(c1)sc1nncn12` [Compound 2], the IC50 on TNKS2 [1] is 2.5 µM; on PARP10 [2] (standard assay (Tables 1-3), * value limited by the protein concentration used, > less than 50% inhibition, ≫ no inhibition at the concentration, read-out: PARP10 IC50) it was greater than 10 µM; at PARP2, 5.3 µM; at PARP15 (setting [6]), greater than 10 µM.
On to `CC(C)c1ccc2c(c1)sc1nncn12` [Compound 6, 7-Isopropyl[1,2,4]triazolo[3,4-b][1,3]benzothiazole], for which the values for the IC50 on TNKS2 [1] and at PARP2 were 9.5 µM and 4.5 µM, respectively. Further, the “cell toxicity (WST-1)” value in the data set with HEK293T cells is “toxic in a dose-dependent manner”.
In the case of `CCOc1ccc(-c2nnc([C@H]3C[C@H](NC(=O)c4cccc5c4NCCN5)C3)n2-c2ccccc2F)nc1` [OM-153], in the data set on TNKS2 [3], the IC50 is 2 nM.
With `COc1ccc(OC)c2c1sc1nnc(NC(=O)c3ccc(Cl)cc3)n12` [Compound 29], the 50% inhibitory concentration (IC50) against PARP10 [2] was greater than 10 µM; at PARP15 (setting [6]) it was 7.9 µM.
As to `Oc1ccc(O)c2c1sc1nncn12` [Compound 18, [1,2,4]Triazolo[3,4-b][1,3]benzothiazol-5,8-diol], the figures for the IC50 at TNKS2 [1] and at PARP2 were 3.1 µM and 0.24 µM, respectively. The “cell toxicity (WST-1)” value in the data set with HEK293T cells is on record as “toxic in a dose-dependent manner”.
On to `NC(=O)c1ccc(OCC2CCC2)cc1` [OUL238], for which, in the data set with PARP10 [4], the IC50 is 290 nM.
Consider `COc1ccc(OC)c2c1sc1nnc(SC)n12` [Compound 28], for which the IC50 against PARP10 [2] and against PARP15 was greater than 10 µM each time.
For `O=c1[nH]nc2c3c(cccc13)N=C(CN1Cc3ccccc3C1)N2` [E7449], the IC50 in the data set on TNKS1/2 is 50 nM.
`NC(=O)c1ccc(Oc2ccc(C(N)=O)cc2)cc1` [OUL35, reference compound]: the “inhibition of auto-MARylation of overexpressed PARP10 in cells” value at PARP10 [5] is given as “did not observe a MAR-signal”.
As for `CC#Cc1ccc2c(=O)[nH]c(CSc3ncccn3)nc2c1C` [ITK7], the IC50 in the data set with PARP11 was 14 nM.
With `C[C@@H](COCCC(=O)N1CCN(c2ncc(C(F)(F)F)cn2)CC1)Nc1cn[nH]c(=O)c1C(F)(F)F` [RBN-2397], in the data set on PARP7, the IC50 is […].

The values above are taken from publication PMC9884089 (Journal of Medicinal Chemistry, 2023).
